In patent US8785655B2, “Ionic liquid solvents” (Dublin City University, priority 2009, dated 2014):

How the values were obtained:
[1] = tested on: Pseudomonas aeruginosa CCM 1961; experiment: Screen against bacteria, MIC/IC80; type: cell-based; conditions: PA
[2] = tested on: Klebsiella pneumoniae D 11750/08; experiment: Screen against bacteria, MIC/IC80; type: cell-based; conditions: KP
[3] = tested on: Candida albicans ATCC 90028; experiment: In vitro antifungal activity, MIC by microdilution (NCCLS M27-A)
Procedure: (§1) In vitro antifungal activities of the compounds were evaluated on the collection of fungal strains deposited at the Department of Biological and Medical Sciences, Faculty of Pharmacy, Charles University, Czech Republic. All the isolates were maintained on Sabouraud dextrose agar prior to being tested.
(§2) Minimum inhibitory concentrations (MICs) were determined by the microdilution format of the NCCLS M27-A guidelines. […] RPMI 1640 (Sevapharma, Prague) medium supplemented with L-glutamine and buffered with 0.165 M morpholinepropanesulfonic acid to pH 7.0 was used as the test medium. The wells of the microdilution tray contained 100 μl of the RPMI 1640 medium with 2-fold serial dilutions of the compounds (1000 to 0.24 μmol/l for the new compounds) and 100 μl of inoculum suspension. Fungal inoculum in RPMI 1640 was prepared to give a final concentration of 5×103±0.2 cfu·ml-1. The trays were incubated at 35° C. and MICs were read visually for filamentous fungi and photometrically for yeasts as an optical density (OD) at 540 nm after 24 h and 48 h. The MICs were defined as 80% inhibition of the growth of control. MICs were determined twice and in duplicate. The deviations from the usually obtained were no higher than the nearest concentration value up and down the dilution scale.

[4] = tested on: Aspergillus fumigatus 231; experiment: as above; conditions: AF
Procedure: as §1, §2

[5] = tested on: Staphylococcus epidermidis H 6966/08; experiment: Screen against bacteria, MIC/IC80; type: cell-based; conditions: SE
Candida glabrata 20/l = experiment: In vitro antifungal activity, MIC by microdilution (NCCLS M27-A); conditions: CG
[6] = tested on: Trichophyton mentagrophytes 445; experiment: as above; conditions: TM
[7] = tested on: Staphylococcus aureus H 5996/08 Methiciline-resistant; experiment: Screen against bacteria, MIC/IC80; type: cell-based; conditions: MRSA
Candida krusei ATCC 6258 = experiment: In vitro antifungal activity, MIC by microdilution (NCCLS M27-A)
Procedure: as §1, §2

Escherichia coli CCM4517 = experiment: Screen against bacteria, MIC/IC80; type: cell-based; conditions: EC
[8] = tested on: Staphylococcus aureus CCM 4516/08; experiment: Screen against bacteria, MIC/IC80; type: cell-based; conditions: SA
[9] = tested on: Klebsiella pneumoniae J 14368/08 ESBL-positive; experiment: Screen against bacteria, MIC/IC80; type: cell-based; conditions: KP-E
[10] = tested on: Candida parapsilosis ATCC 22019; experiment: In vitro antifungal activity, MIC by microdilution (NCCLS M27-A); conditions: CP
Procedure: as §1, §2

Absidia corymbifera 272 = experiment: as above; conditions: AC
[11] = tested on: Candida lusitaniae 2446/l; experiment: as above; conditions: CL
Procedure: as §1, §2

Candida krusei E28 = experiment: as above
[12] = tested on: Enterococcus sp. J 14365/08; experiment: Screen against bacteria, MIC/IC80; type: cell-based; conditions: EF
Candida tropicalis 156 = experiment: In vitro antifungal activity, MIC by microdilution (NCCLS M27-A); conditions: CT
[13] = tested on: Candida albicans ATCC 44859; experiment: as above
Procedure: as §1, §2

| Compound | MIC/IC80 ([1]; 24 h) [mM] | MIC/IC80 ([1]; 48 h) [mM] | MIC/IC80 ([2]; 24 h) [mM] | MIC/IC80 ([2]; 48 h) [mM] | MIC/IC80 ([3]; CA2, 24 h) [mM] | MIC/IC80 ([3]; CA2, 48 h) [mM] | MIC/IC80 ([4]; 24 h) [mM] | MIC/IC80 ([4]; 48 h) [mM] | MIC/IC80 ([5]; 24 h) [mM] | MIC/IC80 ([5]; 48 h) [mM] | MIC/IC80 (Candida glabrata 20/l; 24 h) [mM] | MIC/IC80 (Candida glabrata 20/l; 48 h) [mM] | MIC/IC80 ([6]; 72 h) [mM] | MIC/IC80 ([6]; 120 h) [mM] | MIC/IC80 ([7]; 24 h) [mM] | MIC/IC80 ([7]; 48 h) [mM] | MIC/IC80 (Candida krusei ATCC 6258; CK1, 24 h) [mM] | MIC/IC80 (Candida krusei ATCC 6258; CK1, 48 h) [mM] | MIC/IC80 (Escherichia coli CCM4517; 24 h) [mM] | MIC/IC80 (Escherichia coli CCM4517; 48 h) [mM] | further results |
| --- | --- | --- | --- | --- | --- | --- | --- | --- | --- | --- | --- | --- | --- | --- | --- | --- | --- | --- | --- | --- | --- |
| R-3-methyl-1-[1-(pentoxycarbonyl)-1-methylmethoxycarbonylmethyl]imidazolium octyl sulphate [KG171] | >1 | >1 | >1 | >1 | >1 | >1 | >1 | >1 | >1 | >1 | >1 | >1 | >1 | >1 | >1 | >1 | >1 | >1 | >1 | >1 | MIC/IC80 ([8]; 24 h): >1 mM; MIC/IC80 ([8]; 48 h): >1 mM; MIC/IC80 ([9]; 24 h): >1 mM; MIC/IC80 ([9]; 48 h): >1 mM; MIC/IC80 ([10]; 24 h): >1 mM; MIC/IC80 ([10]; 48 h): >1 mM; MIC/IC80 (Absidia corymbifera 272; 24 h): >1 mM; MIC/IC80 (Absidia corymbifera 272; 48 h): >1 mM; MIC/IC80 ([11]; 24 h): >1 mM; MIC/IC80 ([11]; 48 h): >1 mM; MIC/IC80 (Candida krusei E28; CK2, 24 h): >1 mM; MIC/IC80 (Candida krusei E28; CK2, 48 h): >1 mM; MIC/IC80 ([12]; 24 h): >1 mM; MIC/IC80 ([12]; 48 h): >1 mM; MIC/IC80 (Candida tropicalis 156; 24 h): >1 mM; MIC/IC80 (Candida tropicalis 156; 48 h): >1 mM; MIC/IC80 ([13]; CA1, 24 h): >1 mM; MIC/IC80 ([13]; CA1, 48 h): >1 mM |
| CCOCCOC(=O)[C@@H](OC(=O)Cn1cc[n+](C)c1)c1ccccc1.[Br-] [KG826, S-3-methyl-1-[1-(ethoxyethoxycarbonyl)-1-phenylmethoxycarbonylmethyl]imidazolium bromide] | >1 | >1 | >1 | >1 | >1 | >1 | >1 | >1 | >1 | >1 | >1 | >1 | >1 | >1 | >1 | >1 | >1 | >1 | >1 | >1 | MIC/IC80 ([8]; 24 h): >1 mM; MIC/IC80 ([8]; 48 h): >1 mM; MIC/IC80 ([9]; 24 h): >1 mM; MIC/IC80 ([9]; 48 h): >1 mM; MIC/IC80 ([10]; 24 h): >1 mM; MIC/IC80 ([10]; 48 h): >1 mM; MIC/IC80 (Absidia corymbifera 272; 24 h): >1 mM; MIC/IC80 (Absidia corymbifera 272; 48 h): >1 mM; MIC/IC80 ([11]; 24 h): >1 mM; MIC/IC80 ([11]; 48 h): >1 mM; MIC/IC80 (Candida krusei E28; CK2, 24 h): >1 mM; MIC/IC80 (Candida krusei E28; CK2, 48 h): >1 mM; MIC/IC80 ([12]; 24 h): >1 mM; MIC/IC80 ([12]; 48 h): >1 mM; MIC/IC80 (Candida tropicalis 156; 24 h): >1 mM; MIC/IC80 (Candida tropicalis 156; 48 h): >1 mM; MIC/IC80 ([13]; CA1, 24 h): >1 mM; MIC/IC80 ([13]; CA1, 48 h): >1 mM |
| CCCCCCCCOS(=O)(=O)[O-].CCOCCOC(=O)C(OC(=O)Cn1cc[n+](C)c1)c1ccccc1 (centres unmarked) [KG400, RS-3-methyl-1-[1-(ethoxyethoxycarbonyl)-1-phenylmethoxycarbonylmethyl]imidazolium octyl sulphate] | >1 | >1 | >1 | >1 | >1 | >1 | >1 | >1 | >1 | >1 | >1 | >1 | >1 | >1 | >1 | >1 | >1 | >1 | >1 | >1 | MIC/IC80 ([8]; 24 h): >1 mM; MIC/IC80 ([8]; 48 h): >1 mM; MIC/IC80 ([9]; 24 h): >1 mM; MIC/IC80 ([9]; 48 h): >1 mM; MIC/IC80 ([10]; 24 h): >1 mM; MIC/IC80 ([10]; 48 h): >1 mM; MIC/IC80 (Absidia corymbifera 272; 24 h): >1 mM; MIC/IC80 (Absidia corymbifera 272; 48 h): >1 mM; MIC/IC80 ([11]; 24 h): >1 mM; MIC/IC80 ([11]; 48 h): >1 mM; MIC/IC80 (Candida krusei E28; CK2, 24 h): >1 mM; MIC/IC80 (Candida krusei E28; CK2, 48 h): >1 mM; MIC/IC80 ([12]; 24 h): >1 mM; MIC/IC80 ([12]; 48 h): >1 mM; MIC/IC80 (Candida tropicalis 156; 24 h): >1 mM; MIC/IC80 (Candida tropicalis 156; 48 h): >1 mM; MIC/IC80 ([13]; CA1, 24 h): >1 mM; MIC/IC80 ([13]; CA1, 48 h): >1 mM |
| CCCCCOC(=O)[C@@H](OC(=O)Cn1cc[n+](C)c1)c1ccccc1.[Br-] [KG824, S-3-methyl-1-[1-(pentoxycarbonyl)-1-phenylmethoxycarbonylmethyl]imidazolium bromide] | >1 | >1 | >1 | >1 | 1 | >1 | 1 | 1 | >1 | >1 | 1 | >1 | 0.5 | 0.5 | >1 | >1 | 1 | >1 | >1 | >1 | MIC/IC80 ([8]; 24 h): >1 mM; MIC/IC80 ([8]; 48 h): >1 mM; MIC/IC80 ([9]; 24 h): >1 mM; MIC/IC80 ([9]; 48 h): >1 mM; MIC/IC80 ([10]; 24 h): >1 mM; MIC/IC80 ([10]; 48 h): >1 mM; MIC/IC80 (Absidia corymbifera 272; 24 h): 1 mM; MIC/IC80 (Absidia corymbifera 272; 48 h): 1 mM; MIC/IC80 ([11]; 24 h): >1 mM; MIC/IC80 ([11]; 48 h): >1 mM; MIC/IC80 (Candida krusei E28; CK2, 24 h): 1 mM; MIC/IC80 (Candida krusei E28; CK2, 48 h): >1 mM; MIC/IC80 ([12]; 24 h): >1 mM; MIC/IC80 ([12]; 48 h): >1 mM; MIC/IC80 (Candida tropicalis 156; 24 h): >1 mM; MIC/IC80 (Candida tropicalis 156; 48 h): >1 mM; MIC/IC80 ([13]; CA1, 24 h): 0.5 mM; MIC/IC80 ([13]; CA1, 48 h): >1 mM |
